Columns and labels:
Test in all cases: relative viability (nuclei count vs DMSO), 5 days (fraction); higher = more cells survive
[1] = compound: CCN(CCO)CCCC(C)Nc1ccnc2cc(Cl)ccc12 [Hydroxychloroquine] + CC(C)C[C@H](NC(=O)[C@H](Cc1ccccc1)NC(=O)c1cnccn1)B(O)O [Bortezomib] (partner 0.002 µM)
How it was run: (§1)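 Five library-drug doses in √10 steps were combined with a fixed anchor-drug dose, or a single drug was given alone, by pin tool to lung cancer cell lines in 1536-well plates the day after seeding. Nuclei were stained and counted after 5 days. Relative viability is the nuclei count in treated wells over that in vehicle wells, taken as the median of duplicate plates.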

[2] = compound: CCN(CCO)CCCC(C)Nc1ccnc2cc(Cl)ccc12 [Hydroxychloroquine] + Cc1nc(Nc2ncc(C(=O)Nc3c(C)cccc3Cl)s2)cc(N2CCN(CCO)CC2)n1 [Dasatinib] (partner 0.075 µM)
How it was run: as §1

[3] = compound: CCN(CCO)CCCC(C)Nc1ccnc2cc(Cl)ccc12 [Hydroxychloroquine] + CCNC(=O)c1noc(-c2cc(C(C)C)c(O)cc2O)c1-c1ccc(CN2CCOCC2)cc1 [Luminespib] (partner 0.01 µM)
How it was run: as §1

[4] = compound: CCN(CCO)CCCC(C)Nc1ccnc2cc(Cl)ccc12 [Hydroxychloroquine] + CC(=O)c1c(C)c2cnc(Nc3ccc(N4CCNCC4)cn3)nc2n(C2CCCC2)c1=O [Palbociclib] (partner 0.5 µM)
How it was run: as §1

Cell Line | relative viability ([1]; first compound 0.5 µM) | relative viability ([1]; first compound 1.581 µM) | relative viability ([1]; first compound 5 µM) | relative viability ([1]; first compound 15.81 µM) | relative viability ([1]; first compound 50 µM) | relative viability ([2]; first compound 0.5 µM) | relative viability ([2]; first compound 1.581 µM) | relative viability ([2]; first compound 5 µM) | relative viability ([2]; first compound 15.81 µM) | relative viability ([2]; first compound 50 µM) | relative viability ([3]; first compound 0.5 µM) | relative viability ([3]; first compound 1.581 µM) | relative viability ([3]; first compound 5 µM) | relative viability ([3]; first compound 15.81 µM) | relative viability ([3]; first compound 50 µM) | relative viability ([4]; first compound 0.5 µM) | relative viability ([4]; first compound 1.581 µM) | relative viability ([4]; first compound 5 µM) | relative viability ([4]; first compound 15.81 µM) | relative viability ([4]; first compound 50 µM)
NCI-H2126 | 1.11 | 1.07 | 1.09 | 1.1 | 1.18 | 0.724 | 0.564 | 0.596 | 0.622 | 0.615 | 0.908 | 0.838 | 0.823 | 0.96 | 0.931 | 0.34 | 0.341 | 0.34 | 0.333 | 0.379
LXF-289 | 1.02 | 1.01 | 0.939 | 1.01 | 1 | 0.234 | 0.212 | 0.217 | 0.202 | 0.195 | 0.745 | 0.824 | 0.713 | 0.576 | 0.721 | 0.577 | 0.588 | 0.656 | 0.575 | 0.602
NCI-H520 | 0.639 | 0.606 | 0.662 | 0.658 | 0.511 | 0.196 | 0.223 | 0.213 | 0.184 | 0.196 | 0.236 | 0.226 | 0.217 | 0.184 | 0.209 | 0.232 | 0.205 | 0.231 | 0.199 | 0.239
NCI-H2009 | 1.02 | 1.04 | 0.956 | 0.963 | 1.07 | 0.326 | 0.253 | 0.312 | 0.298 | 0.329 | 0.94 | 0.964 | 1.09 | 1.1 | 0.999 | 0.195 | 0.209 | 0.212 | 0.237 | 0.197

Source: the supplement of paper PMC10307832
